Legend:
GLP-1R = target: T1, GLP-1R (Homo sapiens, UniProt P43220); test: GLP-1 activity test (cAMP, chemiluminescence, CHO-K1 cell line stably expressing GLP-1R); assay type: cell-based; conditions: relative luminescence units, read-out: GLP-1 activity [EC50(pmol)]
T1 construct: expressed in transfected cells; host or cells: CHO-K1
Protocol: (§1) Upon stimulation by a specific agonist, GLP-1R activates the intracellular adenylate cyclase signaling pathway, resulting in an increase in cAMP levels and ultimately leading to insulin production and secretion. A cell line stably transfected with GLP-1R was stimulated with test compounds, thereby rapidly increasing intracellular cAMP levels. The relative luminescence units (RLU) of cells stimulated at various concentrations were measured by a chemiluminescence method, and the EC50 value of the agonist was calculated accordingly. This activity test method is currently a commonly used method for evaluating GLP-1 receptor agonist activity both domestically and internationally.
A CHO-K1 cell line stably expressing GLP-1R was used. The stable cells were stimulated with agonists at different concentrations, and the relative luminescence units after stimulation at each concentration were measured to calculate the EC50 value of the agonist.

GCG-R = target: T2, GCG-R (Homo sapiens, UniProt P47871); test: GCG activity test (cAMP, chemiluminescence, CHO-K1 cell line stably expressing GCG-R); assay type: cell-based; conditions: relative luminescence units, read-out: GCG activity [EC50(nmol)]
T2 construct: expressed in transfected cells; host or cells: CHO-K1
Protocol: as §1, with “agonist, GCG-R” for “agonist, GLP-1R”, “with GCG-R” for “with GLP-1R”, “activity assay” for “activity test”, “evaluating GCG” for “evaluating GLP-1”
A CHO-K1 cell line stably expressing GCG-R was used. The stable cells were stimulated with agonists at different concentrations, and the relative luminescence units after stimulation at each concentration were measured to calculate the EC50 value of the agonist.

T1 sequence (P43220 24-463, species assumed): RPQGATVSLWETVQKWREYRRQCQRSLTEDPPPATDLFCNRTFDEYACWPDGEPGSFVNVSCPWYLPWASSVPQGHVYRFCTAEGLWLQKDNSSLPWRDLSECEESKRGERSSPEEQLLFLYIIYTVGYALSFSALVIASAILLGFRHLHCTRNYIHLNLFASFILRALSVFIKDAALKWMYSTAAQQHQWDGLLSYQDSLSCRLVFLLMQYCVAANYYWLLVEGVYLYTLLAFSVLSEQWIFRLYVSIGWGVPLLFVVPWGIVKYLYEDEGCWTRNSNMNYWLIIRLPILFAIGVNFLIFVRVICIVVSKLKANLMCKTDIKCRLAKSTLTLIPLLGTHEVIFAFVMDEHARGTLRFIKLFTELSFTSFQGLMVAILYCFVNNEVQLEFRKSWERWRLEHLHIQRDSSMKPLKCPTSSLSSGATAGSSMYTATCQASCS
T2 sequence (P47871 26-477, species assumed): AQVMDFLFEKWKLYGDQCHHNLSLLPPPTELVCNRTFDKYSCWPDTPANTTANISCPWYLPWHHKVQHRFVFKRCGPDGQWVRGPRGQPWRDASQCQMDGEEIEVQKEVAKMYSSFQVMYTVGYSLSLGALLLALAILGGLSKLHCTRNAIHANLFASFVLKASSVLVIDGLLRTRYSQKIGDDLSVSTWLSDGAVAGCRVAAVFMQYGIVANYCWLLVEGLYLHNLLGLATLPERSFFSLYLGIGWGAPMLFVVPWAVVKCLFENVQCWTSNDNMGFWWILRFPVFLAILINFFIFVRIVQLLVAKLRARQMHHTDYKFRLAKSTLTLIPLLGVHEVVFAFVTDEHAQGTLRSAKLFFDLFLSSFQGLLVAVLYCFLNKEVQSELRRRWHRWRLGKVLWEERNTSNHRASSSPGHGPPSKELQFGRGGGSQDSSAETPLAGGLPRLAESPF

Row | SMILES | EC50 (GLP-1R) [nM] | EC50 (GCG-R) [nM]
1 | CC(C)C[C@H](NC(=O)[C@H](CC(C)C)NC(=O)[C@H](Cc1c[nH]c2ccccc12)NC(=O)[C@H](CCC(=O)O)NC(=O)[C@@H](NC(=O)[C@H](Cc1ccccc1)NC(=O)[C@H](CCC(=O)O)NC(=O)[C@H](CCCCNC(=O)COCCOCCOCCOCCOCCNC(=O)CCCC[C@H](NC(=O)CCCCCCCCCCCCCCCCCCC(=O)O)C(=O)O)NC(=O)[C@H](C)NC(=O)[C@H](CCCCN)NC(=O)[C@H](CCCCN)NC(=O)[C@H](CCC(=O)O)NC(=O)[C@H](CC(=O)O)NC(=O)[C@H](CC(C)C)NC(=O)[C@H](Cc1ccc(O)cc1)NC(=O)[C@H](CCCCN)NC(=O)[C@H](CO)NC(=O)[C@H](Cc1ccc(O)cc1)NC(=O)[C@H](CC(=O)O)NC(=O)[C@H](CO)NC(=O)[C@@H](NC(=O)C(C)(Cc1ccccc1F)NC(=O)[C@@H](NC(=O)CNC(=O)[C@H](CCC(N)=O)NC(=O)C(C)(C)NC(=O)[C@@H](N)Cc1c[nH]cn1)[C@@H](C)O)[C@@H](C)O)C(C)C)C(=O)N[C@@H](CCC(=O)O)C(=O)NCCCCC(=O)N1CCC[C@H]1C(=O)N[C@@H](CO)C(=O)N[C@@H](CO)C(=O)NCC(=O)N[C@@H](C)C(=O)N1CCC[C@H]1C(=O)N1CCC[C@H]1C(=O)N1CCC[C@H]1C(=O)N[C@@H](CO)C(N)=O (stereo partly drawn) [Compound 11] | 0.0872 | 1.5
2 | CC(C)C[C@H](NC(=O)[C@H](CC(C)C)NC(=O)[C@H](Cc1c[nH]c2ccccc12)NC(=O)[C@H](CCC(=O)O)NC(=O)[C@@H](NC(=O)[C@H](Cc1ccccc1)NC(=O)[C@H](CCC(=O)O)NC(=O)[C@H](CCCCNC(=O)COCCOCCOCCOCCOCCNC(=O)CCCCC[C@H](NC(=O)CCCCCCCCCCCCCCCCCCC(=O)O)C(=O)O)NC(=O)[C@H](C)NC(=O)[C@H](CCCCN)NC(=O)[C@H](CCCCN)NC(=O)[C@H](CCC(=O)O)NC(=O)[C@H](CC(=O)O)NC(=O)[C@H](CC(C)C)NC(=O)[C@H](Cc1ccc(O)cc1)NC(=O)[C@H](CCCCN)NC(=O)[C@H](CO)NC(=O)[C@H](Cc1ccc(O)cc1)NC(=O)[C@H](CC(=O)O)NC(=O)[C@H](CO)NC(=O)[C@@H](NC(=O)C(C)(Cc1ccccc1F)NC(=O)[C@@H](NC(=O)CNC(=O)[C@H](CCC(N)=O)NC(=O)C(C)(C)NC(=O)[C@@H](N)Cc1c[nH]cn1)[C@@H](C)O)[C@@H](C)O)C(C)C)C(=O)N[C@@H](CCC(=O)O)C(=O)NCCCCC(=O)N1CCC[C@H]1C(=O)N[C@@H](CO)C(=O)N[C@@H](CO)C(=O)NCC(=O)N[C@@H](C)C(=O)N1CCC[C@H]1C(=O)N1CCC[C@H]1C(=O)N1CCC[C@H]1C(=O)N[C@@H](CO)C(N)=O (stereo partly drawn) [Compound 12] | 0.0954 | 1.8
3 | CC(C)C[C@H](NC(=O)[C@H](CC(C)C)NC(=O)[C@H](Cc1c[nH]c2ccccc12)NC(=O)[C@H](CCC(=O)O)NC(=O)[C@@H](NC(=O)[C@H](Cc1ccccc1)NC(=O)[C@H](CCC(=O)O)NC(=O)[C@H](CCCCNC(=O)COCCOCCOCCOCCOCCNC(=O)CCCCC[C@H](NC(=O)CCCCCCCCCCCCCCCCCCC(=O)O)C(=O)O)NC(=O)[C@H](C)NC(=O)[C@H](CCCCN)NC(=O)[C@H](CCCCN)NC(=O)[C@H](CCC(=O)O)NC(=O)[C@H](CC(=O)O)NC(=O)[C@H](CC(C)C)NC(=O)[C@H](Cc1ccc(O)cc1)NC(=O)[C@H](CCCCN)NC(=O)[C@H](CO)NC(=O)[C@H](Cc1ccc(O)cc1)NC(=O)[C@H](CC(=O)O)NC(=O)[C@H](CO)NC(=O)[C@@H](NC(=O)C(C)(Cc1ccccc1)NC(=O)[C@@H](NC(=O)CNC(=O)[C@H](CCC(N)=O)NC(=O)C(C)(C)NC(=O)[C@@H](N)Cc1c[nH]cn1)[C@@H](C)O)[C@@H](C)O)C(C)C)C(=O)N[C@@H](CCC(=O)O)C(=O)NCCCCC(=O)N1CCC[C@H]1C(=O)N[C@@H](CO)C(=O)N[C@@H](CO)C(=O)NCC(=O)N[C@@H](C)C(=O)N1CCC[C@H]1C(=O)N1CCC[C@H]1C(=O)N1CCC[C@H]1C(=O)N[C@@H](CO)C(N)=O (stereo partly drawn) [Compound 8] | 0.105 | 2.6
4 | CC(C)C[C@H](NC(=O)[C@H](CC(C)C)NC(=O)[C@H](Cc1c[nH]c2ccccc12)NC(=O)[C@H](CCC(=O)O)NC(=O)[C@@H](NC(=O)[C@H](Cc1ccccc1)NC(=O)[C@H](CCC(=O)O)NC(=O)[C@H](CCCCNC(=O)COCCOCCNC(=O)COCCOCCNC(=O)CC[C@H](NC(=O)CCCCCCCCCCCCCCCCCCC(=O)O)C(=O)O)NC(=O)[C@H](C)NC(=O)[C@H](CCCCN)NC(=O)[C@H](CCCCN)NC(=O)[C@H](CCC(=O)O)NC(=O)[C@H](CC(=O)O)NC(=O)[C@H](CC(C)C)NC(=O)[C@H](Cc1ccc(O)cc1)NC(=O)[C@H](CCCCN)NC(=O)[C@H](CO)NC(=O)[C@H](Cc1ccc(O)cc1)NC(=O)[C@H](CC(=O)O)NC(=O)[C@H](CO)NC(=O)[C@@H](NC(=O)C(C)(Cc1ccccc1)NC(=O)[C@@H](NC(=O)CNC(=O)[C@H](CCC(N)=O)NC(=O)C(C)(C)NC(=O)[C@@H](N)Cc1c[nH]cn1)[C@@H](C)O)[C@@H](C)O)C(C)C)C(=O)N[C@@H](CCC(=O)O)C(=O)NCCCCC(=O)N1CCC[C@H]1C(=O)N[C@@H](CO)C(=O)N[C@@H](CO)C(=O)NCC(=O)N[C@@H](C)C(=O)N1CCC[C@H]1C(=O)N1CCC[C@H]1C(=O)N1CCC[C@H]1C(=O)N[C@@H](CO)C(N)=O (stereo partly drawn) [Compound 14] | 0.088 | 2.5
5 | CC(C)C[C@H](NC(=O)[C@H](CC(C)C)NC(=O)[C@H](Cc1c[nH]c2ccccc12)NC(=O)[C@H](CCC(=O)O)NC(=O)[C@@H](NC(=O)[C@H](Cc1ccccc1)NC(=O)[C@H](CCC(=O)O)NC(=O)[C@H](CCCCNC(=O)COCCOCCOCCOCCOCCNC(=O)CCCC[C@H](NC(=O)CCCCCCCCCCCCCCCCCCC(=O)O)C(=O)O)NC(=O)[C@H](C)NC(=O)[C@H](CCCCN)NC(=O)[C@H](CCCCN)NC(=O)[C@H](CCC(=O)O)NC(=O)[C@H](CC(=O)O)NC(=O)[C@H](CC(C)C)NC(=O)[C@H](Cc1ccc(O)cc1)NC(=O)[C@H](CCCCN)NC(=O)[C@H](CO)NC(=O)[C@H](Cc1ccc(O)cc1)NC(=O)[C@H](CC(=O)O)NC(=O)[C@H](CO)NC(=O)[C@@H](NC(=O)C(C)(Cc1ccccc1)NC(=O)[C@@H](NC(=O)CNC(=O)[C@H](CCC(N)=O)NC(=O)C(C)(C)NC(=O)[C@@H](N)Cc1c[nH]cn1)[C@@H](C)O)[C@@H](C)O)C(C)C)C(=O)N[C@@H](CCC(=O)O)C(=O)NCCCCC(=O)N1CCC[C@H]1C(=O)N[C@@H](CO)C(=O)N[C@@H](CO)C(=O)NCC(=O)N[C@@H](C)C(=O)N1CCC[C@H]1C(=O)N1CCC[C@H]1C(=O)N1CCC[C@H]1C(=O)N[C@@H](CO)C(N)=O (stereo partly drawn) [Compound 7] | 0.0914 | 2.3
6 | CC(C)C[C@H](NC(=O)[C@H](CC(C)C)NC(=O)[C@H](Cc1c[nH]c2ccccc12)NC(=O)[C@H](CCC(=O)O)NC(=O)[C@@H](NC(=O)[C@H](Cc1ccccc1)NC(=O)[C@H](CCC(=O)O)NC(=O)[C@H](CCCCNC(=O)COCCOCCNC(=O)COCCOCCNC(=O)CC[C@H](NC(=O)CCCCCCCCCCCCCCCCCCC(=O)O)C(=O)O)NC(=O)[C@H](C)NC(=O)[C@H](CCCCN)NC(=O)[C@H](CCCCN)NC(=O)[C@H](CCC(=O)O)NC(=O)[C@H](CC(=O)O)NC(=O)[C@H](CC(C)C)NC(=O)[C@H](Cc1ccc(O)cc1)NC(=O)[C@H](CCCCN)NC(=O)[C@H](CO)NC(=O)[C@H](Cc1ccc(O)cc1)NC(=O)[C@H](CC(=O)O)NC(=O)[C@H](CO)NC(=O)[C@@H](NC(=O)C(C)(Cc1ccccc1F)NC(=O)[C@@H](NC(=O)CNC(=O)[C@H](CCC(N)=O)NC(=O)C(C)(C)NC(=O)[C@@H](N)Cc1c[nH]cn1)[C@@H](C)O)[C@@H](C)O)C(C)C)C(=O)N[C@@H](CCC(=O)O)C(=O)NCCCCC(=O)N1CCC[C@H]1C(=O)N[C@@H](CO)C(=O)N[C@@H](CO)C(=O)NCC(=O)N[C@@H](C)C(=O)N1CCC[C@H]1C(=O)N1CCC[C@H]1C(=O)N1CCC[C@H]1C(=O)N[C@@H](CO)C(N)=O (stereo partly drawn) [Compound 15] | 0.0835 | 1.8

From patent publication EP4806912A1, “DUAL AGONIST COMPOUND” (Chengdu Aoda Biotechnology Co., Ltd, priority 2023, dated 2025)
